For nine molecules, Ki results are on record in ChEMBL document CHEMBL1150297, “Beta-amino acid substitutions and structure-based CoMFA modeling of hepatitis C virus NS3 protease inhibitors” (Bioorg Med Chem, 2008).

pKi: −log10 of the molar value.

One may read the pKi as −log10 of the Ki, conventionally taken in molar units.

A short description of the experiment: Inhibition of HCV NS3 protease by fluorescence plate reader. Further details: species or system Hepacivirus hominis.
The molecule `COc1ccc2c(O[C@@H]3C[C@@H](C(=O)NC4(CC(=O)O)CC4)N(C(=O)[C@@H](NC(=O)OC(C)(C)C)C(C)C)C3)cc(-c3ccccc3)nc2c1` had a pKi of 4.74.
With `COc1ccc2c(O[C@@H]3C[C@@H](C(=O)NC4(CC(=O)NS(=O)(=O)c5ccccc5)CC4)N(C(=O)[C@@H](NC(=O)OC(C)(C)C)C(C)C)C3)cc(-c3ccccc3)nc2c1` the figure was 4.85.
The molecule `COc1ccc2c(O[C@@H]3C[C@@H](C(=O)NC4(C(=O)NS(=O)(=O)c5ccccc5)CC4)N(C(=O)[C@@H](NC(=O)OC(C)(C)C)C(C)C)C3)cc(-c3ccccc3)nc2c1` showed a negative logarithm of the Ki (pKi) of 7.26.
As for `COc1ccc2c(O[C@@H]3C[C@@H](C(=O)NC4(C(=O)NS(=O)(=O)c5ccccc5)CC4)N(C(=O)C[C@@H](NC(=O)OC(C)(C)C)C(C)C)C3)cc(-c3ccccc3)nc2c1`, the negative logarithm of the Ki (pKi) is 5.92.
Under `COc1ccc2c(O[C@@H]3C[C@@H](C(=O)NC4(C(=O)O)CC4)N(C(=O)[C@@H](NC(=O)OC(C)(C)C)C(C)C)C3)cc(-c3ccccc3)nc2c1` stands 6.49; under `COc1ccc2c(O[C@@H]3C[C@@H](CC(=O)NC4(C(=O)O)CC4)N(C(=O)[C@@H](NC(=O)OC(C)(C)C)C(C)C)C3)cc(-c3ccccc3)nc2c1`, 4.21.
Under `COc1ccc2c(O[C@@H]3C[C@@H](CC(=O)NC4(C(=O)NS(=O)(=O)c5ccccc5)CC4)N(C(=O)[C@@H](NC(=O)OC(C)(C)C)C(C)C)C3)cc(-c3ccccc3)nc2c1` stands 5.74; under `COc1ccc2c(O[C@@H]3C[C@@H](C(=O)NC4(C(=O)C(=O)O)CC4)N(C(=O)[C@@H](NC(=O)OC(C)(C)C)C(C)C)C3)cc(-c3ccccc3)nc2c1`, 6.00; under `COc1ccc2c(O[C@@H]3C[C@@H](C(=O)NC4(C(=O)O)CC4)N(C(=O)C[C@@H](NC(=O)OC(C)(C)C)C(C)C)C3)cc(-c3ccccc3)nc2c1`, 4.77.
